The assay has as its system harmful plant species. Kind of assay: Specific trial examples: binary compositions applied by the post-emergence method, synergistic effect according to Colby (Tables 3.1-3.2). The class given is in vivo. To be noted: for Herbicidal action against Brachiaria platyphylla: g a.i./ha: r479 30, r480 1.7; for Herbicidal action against Eleusine indica: g a.i./ha: r487 270, r488 5; for Herbicidal action against Echinochloa crus-galli: g a.i./ha: r372 270, r373 90, r374 30, r375 5. As for the experimental part:
When the observed efficacies already exceed the formal sum total of the values of the tests with individual applications, they also exceed the expected value according to Colby, which is calculated using the formula below and is likewise regarded as an indication of synergism (cf. S. R. Colby; in Weeds 15 (1967) p. 20 to 22):
Seeds or rhizome pieces of mono- and dicotyledonous weeds are placed in sandy loam in pots, covered with soil and grown in a greenhouse under good growth conditions (temperature, air humidity, water supply). Three weeks after sowing, the test plants are treated at the three-leaf stage with the compositions according to the invention. The compositions according to the invention formulated as spray powders or as emulsion concentrates are sprayed onto the green plant parts in various dosages with an application rate of 300 to 800 l/ha of water (equivalent).
The sum total of the effects of the individual applications is reported under E^A; Expected values according to Colby are each reported under E^C.
The rating period is reported in days after application (DAT).

The mark [1] stands for this setting: Z61 28 DAT, g a.i./ha: r459 30, r460 15.

Turning to `C=C[C@]1(C(=O)N[C@H]2CO[C@@H](C(=O)NOC)C2)CC(c2cc(C)cc(F)c2)=NO1` (relative stereo) [Compound A3, (5S)-3-(3-fluoro-5-methylphenyl)-N-[rel-(3R,5R)-5-(methoxycarbamoyl)tetrahydrofuran-3-yl]-5-vinyl-4H-isoxazole-5-carboxamide], where the note is “15 g a.i./ha”, the “Herbicidal action 28 DAT against Amaranthus palmeri (res.)” value (“Herbicidal action 28 DAT … (res.)” for short) was determined as 10%. Also, where the note is “45 g a.i./ha”, the “Herbicidal action 28 DAT … (res.)” value is recorded as 20% and the “Herbicidal action 28 DAT against Kochia scoparia” value came to 20%. The “Herbicidal action against Abutilon theophrasti” value under setting [1] is 10%. Moreover, the “Herbicidal action against Amaranthus palmeri (res.)” value (Z61 28 DAT, g a.i./ha: r467 90, r468 30, r469 15, r470 5) is 10%. Also, for the setting “Z61 28 DAT”, the “Herbicidal action against Brachiaria platyphylla” value was 10% and the “Herbicidal action against Eleusine indica” value was found to be 70%. In addition, under “post-emergence, single active compound, g a.i./ha: r396 50, r398 5”, the “Herbicidal action 28 DAT [%] against Pharbitis purpurea” value is reported as 70%.
As to `O=C(Nc1ccc(F)cc1F)c1cccnc1Oc1cccc(C(F)(F)F)c1` [(B2.18) Diflufenican], the “Herbicidal action against Digitaria sanguinalis” value (28 DAT, g a.i./ha: r8 270, r9 90, r10 30, r11 15, r12 5) was 20%. Also, the “Herbicidal action against Setaria faberi” value (28 DAT, g a.i./ha: r35 270, r36 90, r37 30, r38 15, r39 5, r40 1.67) is given as 0%. The “Herbicidal action against Setaria viridis” value (28 DAT, g a.i./ha: r51 270, r52 15, r53 5, r54 1.67) is on record as 10%. In addition, the “Herbicidal action against Alopecurus myosuroides (sensitive biotype)” value (28 DAT, g a.i./ha: r149 15, r150 5, r151 270, r152 90, r153 30) is given as 0%. In addition, the “Herbicidal action against Papaver rhoeas” value (28 DAT, g a.i./ha: r231 15, r232 5, r233 270) turned out to be 30%. Also, the “Herbicidal action against Veronica hederifolia” value (28 DAT, g a.i./ha: r294 5, r295 90) amounted to 60%. For the same molecule, the “Herbicidal action against Echinochloa crus-galli” value ((Z32) 28 DAT) is 10%. Besides, the “Herbicidal action against Centaurea cyanus” value reads like this: ((Z90) 14 DAT, g a.i./ha: r533 16, r534 4, r535 1, r536 90, r537 30) 50%; ((Z119) 28 DAT, g a.i./ha: r654 16, r655 30) 10%. Moreover, the “Herbicidal action against Lamium purpureum L.” value ((Z90) 28 DAT, g a.i./ha: r586 16, r587 30) was 10%. The “Herbicidal action against Lolium rigidum” value turned out to be 0% ((Z90) 28 DAT, g a.i./ha: r594 16, r595 30); 10% ((Z119) 14 DAT, g a.i./ha: r682 16, r683 30); 0% ((Z119) 28 DAT, g a.i./ha: r690 16, r691 30). The “Herbicidal action against Matricaria inodora” value ((Z90) 28 DAT, g a.i./ha: r602 4, r603 90) amounted to 10%. Where the note is “(Z90) 28 DAT, g a.i./ha: r624 4, r625 270”, the “Herbicidal action against Viola tricolor” value was determined as 40%. The “Herbicidal action against Alopecurus myosuroides” value ((Z119) 14 DAT, g a.i./ha: r632 16, r633 4, r634 30, r635 270) is 20%. Moreover, the “Herbicidal action against Phalaris minor” value ((Z119) 14 DAT, g a.i./ha: r709 4, r710 270) is on record as 20%. Moreover, the “Herbicidal action against Poa annua L.” value ((Z119) 14 DAT, g a.i./ha: r729 4, r730 270) was determined as 20%. Where the note is “(Z119) 28 DAT, g a.i./ha: r662 1, r663 270”, the “Herbicidal action against Galium aparine” value turned out to be 20%. Moreover, the “Herbicidal action against Abutilon theophrasti” value under setting [1] is 10%. In addition, the “Herbicidal action against Brachiaria platyphylla” value (Z61 28 DAT) was 10%. In addition, the “Herbicidal action against Eleusine indica” value (Z61 28 DAT) was 20%.
For the molecule `C[C@]1(C(=O)N[C@H]2CO[C@@H](C(=O)NS(C)(=O)=O)C2)CC(c2cc(F)cc(F)c2)=NO1` (relative stereo) [Compound A2, (5R)-3-(3,5-difluorophenyl)-5-methyl-N-[rel-(3R,5R)-5-(methylsulfonylcarbamoyl)tetrahydrofuran-3-yl]-4H-isoxazole-5-carboxamide], for the setting “1.7 g a.i./ha”, the “Herbicidal action 28 DAT against Brachiaria platyphylla” value was determined as 0%, the “Herbicidal action 28 DAT against Digitaria sanguinalis” value came to 0%, the “Herbicidal action 28 DAT against Echinochloa crus-galli” value came out at 10% and the “Herbicidal action 28 DAT against Eleusine indica” value was found to be 30%. Further, the “Herbicidal action 28 DAT against Sorghum halepense” value (1.7 g a.i./ha) is 0%. Further, under “5 g a.i./ha”, the “Herbicidal action 28 DAT … (res.)” value is given as 15%, the “Herbicidal action 28 DAT against Digitaria sanguinalis” value is given as 0%, the “Herbicidal action 28 DAT against Echinochloa crus-galli” value amounted to 20% and the “Herbicidal action 28 DAT against Eleusine indica” value was 35%. Also, under “5 g a.i./ha”, the “Herbicidal action 28 DAT against Kochia scoparia” value is given as 20%, the “Herbicidal action 28 DAT against Pharbitis purpurea” value is listed as 75%, the “Herbicidal action 28 DAT against Polygonum convolvulus” value was 80% and the “Herbicidal action 28 DAT against Sorghum halepense” value is on record as 0%. Moreover, under “15 g a.i./ha”, the “Herbicidal action 28 DAT … (res.)” value is 65%, the “Herbicidal action 28 DAT against Eleusine indica” value was 45%, the “Herbicidal action 28 DAT against Kochia scoparia” value is recorded as 20% and the “Herbicidal action 28 DAT against Sorghum halepense” value came to 15%. Also, the “Herbicidal action against Abutilon theophrasti” value ((Z32) 28 DAT, g a.i./ha: r315 270, r316 90, r317 30, r318 15) came to 20%. Moreover, the “Herbicidal action against Bidens pilosa” value ((Z32) 28 DAT, g a.i./ha: r337 270, r338 90, r339 30, r340 15) amounted to 10%. In addition, the “Herbicidal action against Digitaria sanguinalis” value ((Z32) 28 DAT, g a.i./ha: r361 270, r362 90, r363 30, r364 15) was determined as 10%. Moreover, for the setting “(Z32) 28 DAT”, the “Herbicidal action against Echinochloa crus-galli” value came out at 20%. Also, the “Herbicidal action against Kochia scoparia” value ((Z32) 28 DAT, g a.i./ha: r396 270, r397 90, r398 15, r399 5) was 20%. Moreover, the “Herbicidal action against Pharbitis purpurea” value ((Z32) 28 DAT, g a.i./ha: r408 270, r409 90, r410 30, r411 5) was 75%. The “Herbicidal action against Polygonum convolvulus” value ((Z32) 28 DAT, g a.i./ha: r419 90, r420 30, r421 5) is 80%. Moreover, the “Herbicidal action 28 DAT [%] against Digitaria sanguinalis” value (post-emergence, single active compound (A2 series), g a.i./ha: r326 150, r327 50, r328 5, r329 1.7) worked out at 0%. Also, the “Herbicidal action 28 DAT [%] against Eleusine indica” value (post-emergence, single active compound (A2 series), g a.i./ha: r337 150, r339 5) turned out to be 35%. In addition, under “post-emergence, single active compound (A2 series), g a.i./ha: r347 50, r349 5”, the “Herbicidal action 28 DAT [%] against Kochia scoparia” value was 20%. Also, the “Herbicidal action 28 DAT [%] against Polygonum convulvulus” value (post-emergence, single active compound (A2 series), g a.i./ha: r357 50, r359 5) came out at 80%.

For the origin of these results see patent US20220053762A1, “HERBICIDAL COMPOSITIONS” (Bayer Aktiengesellschaft, priority 2018, published 2022).
